The subject of data set [1] is immune cells isolated from central nervous system (CNS). Briefly: FACS of immune cells from CNS of EAE mice after nasal treatment. The note with it: CNS (brain and spinal cord), intranasal treatment of EAE mice. The data set is classed as in vivo, mouse. How it is done:
A-B: Effects of incubation with IL-4 and different concentrations of Link4 and Link13 on the differentiation of A: CD11b^+ bone marrow-derived macrophages (BMDMs) into F80^+CD206^+ cells, and B: CD4^+ T cells into Gata3^+ cells. C-D: FACS results for different populations of T cells and CD11b^+MHCII^+ monocytes/macrophages/microglia of immune cells isolated from C: spleen and D: central nervous system (CNS) of EAE mice treated with PBS, IL-4 or Link4.
Subsequently, the effects of IL-4 and Link4 on immune cells were analysed when applied intranasally, similarly as in FIG. 3B. Since nasally applied treatments can enter the periphery (lungs, blood stream) it was of utmost importance to check whether the substances affected the lymphocyte populations in the spleen. A reduction was found of CD8^+ cytotoxic T-cells for Link4, whereas all CD4^+ T helper cell types were unchanged. The CD11 b+MHCII+ population of monocytes/macrophages was also not changed.
CNS and spleens were removed from EAE mice treated with nasal IL-4, Link4 or PBS at d35 and immune cells were isolated as previously described (M. Paterka, J. O. Voss, J. Werr, E. Reuter, S. Franck, T. Leuenberger, J. Herz, H. Radbruch, T. Bopp, V. Siffrin, and F. Zipp, Dendritic cells tip the balance towards induction of regulatory T cells upon priming in experimental autoimmune encephalomyelitis. J Autoimmun 67, 108-114 (2017)). […]

Data set [2] deals with hippocampal cell line HT22. As to the kind of experiment: CellTiter-blue cell viability assay (ctb), hippocampal cell line. Type of data set: cell-based. The note with it: HT22 cells, increasing concentrations, FIG. 2B. How it is done: (§1) Toxicity was checked by subjecting mouse embryonic fibroblasts (Mef) and the hippocampal cell line HT22 to a CellTiter-blue cell viability assay (ctb).
(§2) Mouse embryonic fibroblasts (Mef) (Sigma-Aldrich) and hippocampal HT22 (ThermoScientific) cells were cultured according to the manufacturer's protocols. Ctb assays were performed according to the manufacturer's protocols (Promega).
A general note: The colour change of resazurin is a common sign of viable cells or microbes.

Data set [3] deals with corticospinal tract axons. As to the kind of experiment: Analysis of axon swellings in spinal cords of EAE mice. The data set is classed as in vivo, mouse. The settings on record: EAE mice treated during the chronic phase, FIG. 7A. On the procedure:
A: Histological analysis of corticospinal tract axons in spinal cords of EAE mice treated during the chronic phase of the disease.
EAE experiments were performed by immunizing YFP-H mice, that express yellow fluorescent protein in corticospinal neurons, with MOG35-55. Mice were treated with IL-4 or PBS as described above. At the last treatment day, the mice were sacrificed with an overdose of anaesthesia and transcardially perfused with 4% paraformaldehyde. Spinal cords were dissected and further processed for cryosectioning. YFP-labelled corticospinal tract axons were photographed using the Keyence BZ-9000 microscope. For quantification of axon swellings, thresholds were set in ImageJ so that stained pixels were highlighted. Thresholded swellings were counted using the ImageJ plug-in “particle analysis”.

In data set [4] the test system is mouse embryonic fibroblasts (Mef). Briefly: CellTiter-blue cell viability assay (ctb), fibroblasts. The data set is classed as cell-based. The note with it: Mef cells, increasing concentrations, FIG. 2A. On the procedure: as §1, §2

For “RARSEIIGIGSKSIMQMDY (listed as Mus musculus) [Link4]”, the “IL-10+ cells” value in data set [1] is “significant rise”. For the same sequence, in data set [2], the “toxic effects on hippocampal neurons (cell viability)” value is given as “no toxic effects”. In data set [3], the “number of axon swellings” value was “significantly reduced”. In addition, in data set [4], the “toxic effects on fibroblasts (cell viability)” value was “no toxic effects”.

The values are drawn from patent US20200377568A1, “Novel IL-4-/IL-13-derived peptide compounds for the treatment or prevention of neurodegenerative or neuroinflammatory diseases” (Universitätsmedizin der Johannes Gutenberg-Universität Mainz, priority 2018, published 2020).
